Where two headings read alike, the source gives them in different places.
Tests used:
hDAT [1] = molecular target: T1, hDAT (Homo sapiens, UniProt Q01959); experiment: Inhibition of [125I]RTI-55 binding, HEK-hDAT membranes; conditions: read-out: Inhibition of [125I]RTI-55 binding Ki ± sem, hDAT; HEK-hDAT membranes
hNET [2] = molecular target: T2, hNET (Homo sapiens, UniProt P23975); experiment: biochemical; assay type: binding; conditions: read-out: Inhibition of [125I]RTI-55 binding Ki ± sem, hNET
hDAT [3] = molecular target: T1, hDAT; experiment: Inhibition of [3H]DA uptake, intact HEK-hDAT cells; assay type: cell-based; conditions: for ratio of binding Ki to uptake IC50, hDAT: [125I]RTI-55 Ki / [3H]DA uptake IC50; for IC50: read-out: Inhibition of [3H]neurotransmitter uptake IC50 ± sem, hDAT [3H]DA, 20 nM [3H]DA, intact cells
hSERT [4] = molecular target: T3, hSERT (Homo sapiens, UniProt P31645); experiment: Inhibition of [3H]5-HT uptake, intact HEK-hSERT cells; assay type: cell-based; conditions: for IC50: read-out: Inhibition of [3H]neurotransmitter uptake IC50 ± sem, hSERT [3H]5-HT, 20 nM [3H]5-HT, intact cells
hNET [5] = molecular target: T2, hNET; experiment: cell-based; assay type: cell-based; conditions: for ratio of binding Ki to uptake IC50, hNET: [125I]RTI-55 Ki / [3H]NE uptake IC50; for IC50: read-out: Inhibition of [3H]neurotransmitter uptake IC50 ± sem, hNET [3H]NE
hDAT [6] = molecular target: T1, hDAT; experiment: Superfusion release of preloaded [3H]DA from HEK-hDAT cells; assay type: cell-based; conditions: for EC50: read-out: Drug-induced release of [3H]neurotransmitter EC50 ± sem, hDAT [3H]DA, superfusion, AUC
hSERT [7] = molecular target: T3, hSERT; experiment: Superfusion release of preloaded [3H]5-HT from HEK-hSERT cells; assay type: cell-based; conditions: for EC50: read-out: Drug-induced release of [3H]neurotransmitter EC50 ± sem, hSERT [3H]5-HT, superfusion, AUC
hNET [8] = molecular target: T2, hNET; experiment: Superfusion release of preloaded [3H]NE from HEK-hNET cells; assay type: cell-based; conditions: for EC50: read-out: Drug-induced release of [3H]neurotransmitter EC50 ± sem, hNET [3H]NE, superfusion, AUC; for % maximum release ± sem, hNET [3H]NE: relative to maximal AUC induced by METH (0.3 or 1 µM)
hVMAT2 [9] = molecular target: T4, hVMAT2 (Homo sapiens, UniProt Q05940); experiment: Inhibition of [3H]5-HT uptake, HEK-hVMAT2 membrane preparation; assay type: biochemical; conditions: read-out: Inhibition of [3H]5-HT uptake IC50 ± sem, hVMAT2; 40 nM [3H]5-HT, 2 mM MgATP
hVMAT2 [10] = molecular target: T4, hVMAT2; experiment: Superfusion release of preloaded [3H]NE from HEK-hVMAT2 cells; assay type: cell-based; conditions: for EC50: read-out: Drug-induced release of [3H]NE EC50 ± sem, hVMAT2, superfusion
h5-HT1A receptor [11] = molecular target: T5, h5-HT1A receptor (Homo sapiens, UniProt P08908); experiment: [3H]8-OH-DPAT binding, HEK-h5-HT1A; conditions: read-out: Inhibition of radioligand binding Ki ± sem, h5-HT1A [3H]8OH-DPAT
T5 sequence (P08908 1-422): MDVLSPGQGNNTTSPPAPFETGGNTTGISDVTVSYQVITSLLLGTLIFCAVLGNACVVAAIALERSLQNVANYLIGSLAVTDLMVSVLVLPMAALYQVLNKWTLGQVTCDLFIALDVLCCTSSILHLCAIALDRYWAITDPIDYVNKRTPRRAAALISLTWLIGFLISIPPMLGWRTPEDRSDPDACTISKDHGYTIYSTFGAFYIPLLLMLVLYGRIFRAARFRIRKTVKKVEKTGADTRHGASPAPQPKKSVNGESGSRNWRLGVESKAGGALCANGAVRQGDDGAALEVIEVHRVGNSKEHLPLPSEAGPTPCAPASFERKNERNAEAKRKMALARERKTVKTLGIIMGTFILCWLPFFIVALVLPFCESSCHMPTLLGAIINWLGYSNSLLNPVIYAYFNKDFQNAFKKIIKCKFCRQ

h5-HT2A receptor [12] = molecular target: T6, h5-HT2A receptor (Homo sapiens, UniProt P28223); experiment: [125I]DOI binding, HEK-h5-HT2A; conditions: read-out: Inhibition of radioligand binding Ki ± sem, h5-HT2A [125I]DOI
h5-HT2C receptor [13] = molecular target: T7, h5-HT2C receptor (Homo sapiens, UniProt P28335); experiment: biochemical; assay type: binding; conditions: read-out: Inhibition of radioligand binding Ki ± sem, h5-HT2C [125I]DOI
T7 sequence (P28335 33-458): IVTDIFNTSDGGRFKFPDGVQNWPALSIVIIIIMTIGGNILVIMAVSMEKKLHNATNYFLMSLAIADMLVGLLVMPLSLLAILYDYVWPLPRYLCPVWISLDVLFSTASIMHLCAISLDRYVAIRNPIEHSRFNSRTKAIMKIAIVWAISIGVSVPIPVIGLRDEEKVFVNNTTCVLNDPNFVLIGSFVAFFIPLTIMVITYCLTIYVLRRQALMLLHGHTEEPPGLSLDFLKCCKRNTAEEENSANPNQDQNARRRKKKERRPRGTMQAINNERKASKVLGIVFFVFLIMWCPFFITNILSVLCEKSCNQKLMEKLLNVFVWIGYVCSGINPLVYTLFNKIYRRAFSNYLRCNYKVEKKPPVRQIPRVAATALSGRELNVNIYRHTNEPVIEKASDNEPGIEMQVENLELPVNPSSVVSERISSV

h5-HT1A receptor [14] = molecular target: T5, h5-HT1A receptor; experiment: Stimulation of [35S]GTPγS binding, HEK-h5-HT1A membranes; assay type: biochemical; conditions: for h5-HT1A Stimulation of [35S]GTPγS binding % maximum stimulation ± sem: normalized to the maximal stimulation by 5-HT; for EC50: read-out: h5-HT1A Stimulation of [35S]GTPγS binding EC50 ± sem
h5-HT2A receptor [15] = molecular target: T6, h5-HT2A receptor; experiment: Inhibition of 5-HT-stimulated IP-1 formation; assay type: cell-based; conditions: 100 nM 5-HT; for h5-HT2A Inhibition of 5-HT-stimulated IP-1 formation % maximum inhibition ± sem: normalized to maximal inhibition by ketanserin (10 µM); for IC50: read-out: h5-HT2A Inhibition of 5-HT-stimulated IP-1 formation IC50 ± sem
h5-HT2C receptor [16] = molecular target: T7, h5-HT2C receptor; experiment: Inhibition of 5-HT-stimulated IP-1 formation; assay type: cell-based; conditions: 100 nM 5-HT; normalized to maximal inhibition by SB242084 (1 µM)
hSigma1 receptor = hSigma1 receptor (Homo sapiens, UniProt Q99720); experiment: [3H]; assay type: binding; conditions: read-out: Inhibition of [3H]pentazocine binding Ki ± sem, hSigma1
[17] = overdose with a bath salt product containing 4-FMC and MDPV; ref [44]; cited from earlier work
hVMAT2 [18] = molecular target: T4, hVMAT2; experiment: Inhibition of [3H]DHTB binding, HEK-hVMAT2 membranes; conditions: read-out: Inhibition of [3H]DHTB binding Ki ± sem, hVMAT2
human DA D1 receptor = human DA D1 receptor (Homo sapiens, UniProt P21728); experiment: [3H]SCH23390 binding, LhD1 cells; conditions: test drugs up to the maximal concentration tested (10 µM)
human DA D2 receptor = human DA D2 receptor (Homo sapiens, UniProt P14416); assay type: binding; conditions: test drugs up to the maximal concentration tested (10 µM)
human DA D3 receptor = human DA D3 receptor (Homo sapiens, UniProt P35462); experiment: [3H]YM-09151-2 binding, CHOp-D3 cells; conditions: test drugs up to 10 µM; words give concentration range, 'low' = low nanomolar
human D4.4 receptor = molecular target: T8, human D4.4 receptor (Homo sapiens, UniProt P21917); assay type: binding; conditions: test drugs up to 10 µM; words give concentration range, 'low' = low nanomolar
T8 sequence (P21917 1-419): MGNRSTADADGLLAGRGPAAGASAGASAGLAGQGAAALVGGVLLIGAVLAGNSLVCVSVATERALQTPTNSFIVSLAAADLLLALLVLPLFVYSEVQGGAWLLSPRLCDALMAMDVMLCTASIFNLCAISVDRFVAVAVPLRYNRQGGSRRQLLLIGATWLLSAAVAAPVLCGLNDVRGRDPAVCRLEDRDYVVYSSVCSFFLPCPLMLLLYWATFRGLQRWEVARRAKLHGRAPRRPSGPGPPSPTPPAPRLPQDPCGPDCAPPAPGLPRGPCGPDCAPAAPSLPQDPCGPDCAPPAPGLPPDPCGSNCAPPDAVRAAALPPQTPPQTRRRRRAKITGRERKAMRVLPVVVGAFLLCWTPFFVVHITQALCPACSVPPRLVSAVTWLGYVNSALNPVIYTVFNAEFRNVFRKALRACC

h5-HT2C receptor [19] = molecular target: T7, h5-HT2C receptor; assay type: cell-based

T3 sequence (P31645 whole entry): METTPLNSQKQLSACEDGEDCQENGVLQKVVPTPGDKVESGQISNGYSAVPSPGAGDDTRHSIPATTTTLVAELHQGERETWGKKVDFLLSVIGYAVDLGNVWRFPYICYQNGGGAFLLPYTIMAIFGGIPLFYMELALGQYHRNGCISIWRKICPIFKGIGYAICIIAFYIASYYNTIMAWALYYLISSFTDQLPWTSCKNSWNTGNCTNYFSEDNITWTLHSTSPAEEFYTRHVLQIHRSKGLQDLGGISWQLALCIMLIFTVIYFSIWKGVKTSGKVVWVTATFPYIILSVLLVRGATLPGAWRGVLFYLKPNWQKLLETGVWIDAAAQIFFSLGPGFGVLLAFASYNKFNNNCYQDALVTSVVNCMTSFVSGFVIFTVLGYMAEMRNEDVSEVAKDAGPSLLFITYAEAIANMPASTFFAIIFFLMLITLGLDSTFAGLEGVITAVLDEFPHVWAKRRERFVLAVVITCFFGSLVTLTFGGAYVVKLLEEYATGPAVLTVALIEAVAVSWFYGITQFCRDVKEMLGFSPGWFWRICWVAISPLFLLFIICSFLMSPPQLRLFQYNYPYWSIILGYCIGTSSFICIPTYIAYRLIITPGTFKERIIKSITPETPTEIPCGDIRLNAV
T4 sequence (Q05940 whole entry, the tested form may be a part): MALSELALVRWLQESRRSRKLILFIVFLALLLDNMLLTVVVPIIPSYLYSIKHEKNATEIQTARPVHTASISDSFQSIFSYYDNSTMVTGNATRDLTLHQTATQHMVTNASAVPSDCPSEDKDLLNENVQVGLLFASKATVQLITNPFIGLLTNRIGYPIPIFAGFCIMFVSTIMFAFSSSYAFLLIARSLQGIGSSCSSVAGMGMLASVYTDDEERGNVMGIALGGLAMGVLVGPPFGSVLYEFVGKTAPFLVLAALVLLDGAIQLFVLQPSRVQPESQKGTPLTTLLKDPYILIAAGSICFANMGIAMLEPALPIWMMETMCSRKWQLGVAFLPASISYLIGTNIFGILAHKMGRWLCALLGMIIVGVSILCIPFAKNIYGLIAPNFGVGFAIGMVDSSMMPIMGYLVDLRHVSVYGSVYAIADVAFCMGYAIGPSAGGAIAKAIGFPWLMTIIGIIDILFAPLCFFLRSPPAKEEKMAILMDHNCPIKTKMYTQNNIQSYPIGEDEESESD
T1 sequence (Q01959 whole entry): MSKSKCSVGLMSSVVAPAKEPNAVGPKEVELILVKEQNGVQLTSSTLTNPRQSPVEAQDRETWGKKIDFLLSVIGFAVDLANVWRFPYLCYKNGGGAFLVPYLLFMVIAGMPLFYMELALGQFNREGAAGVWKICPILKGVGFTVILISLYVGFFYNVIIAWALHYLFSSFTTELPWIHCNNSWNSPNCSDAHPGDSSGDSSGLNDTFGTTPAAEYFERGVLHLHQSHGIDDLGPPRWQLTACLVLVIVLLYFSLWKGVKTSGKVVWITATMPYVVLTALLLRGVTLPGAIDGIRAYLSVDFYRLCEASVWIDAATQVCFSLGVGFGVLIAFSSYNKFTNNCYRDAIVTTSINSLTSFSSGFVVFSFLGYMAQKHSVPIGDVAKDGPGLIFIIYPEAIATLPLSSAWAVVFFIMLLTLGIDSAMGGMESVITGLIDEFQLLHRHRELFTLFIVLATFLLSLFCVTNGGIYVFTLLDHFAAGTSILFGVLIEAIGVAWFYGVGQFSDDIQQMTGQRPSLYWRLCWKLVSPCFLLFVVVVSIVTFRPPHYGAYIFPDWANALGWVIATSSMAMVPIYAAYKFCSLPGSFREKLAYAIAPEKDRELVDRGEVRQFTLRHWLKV
T2 sequence (P23975 whole entry): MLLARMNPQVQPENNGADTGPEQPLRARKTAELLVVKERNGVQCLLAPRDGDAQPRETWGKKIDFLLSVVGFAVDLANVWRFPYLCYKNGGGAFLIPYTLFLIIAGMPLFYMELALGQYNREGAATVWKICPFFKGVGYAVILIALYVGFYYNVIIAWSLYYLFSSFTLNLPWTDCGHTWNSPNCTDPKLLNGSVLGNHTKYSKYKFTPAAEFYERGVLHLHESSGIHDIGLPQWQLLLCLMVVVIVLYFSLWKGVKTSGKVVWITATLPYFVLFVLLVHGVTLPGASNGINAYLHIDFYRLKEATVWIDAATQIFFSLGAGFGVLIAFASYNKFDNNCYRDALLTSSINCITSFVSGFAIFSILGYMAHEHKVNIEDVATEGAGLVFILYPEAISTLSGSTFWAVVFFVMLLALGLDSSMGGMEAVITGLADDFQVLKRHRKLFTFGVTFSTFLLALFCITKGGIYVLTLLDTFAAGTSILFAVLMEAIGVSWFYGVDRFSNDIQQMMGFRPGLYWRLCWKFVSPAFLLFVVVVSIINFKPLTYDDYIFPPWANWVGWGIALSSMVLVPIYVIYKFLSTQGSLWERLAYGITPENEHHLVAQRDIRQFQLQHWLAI
T6 sequence (P28223 whole entry): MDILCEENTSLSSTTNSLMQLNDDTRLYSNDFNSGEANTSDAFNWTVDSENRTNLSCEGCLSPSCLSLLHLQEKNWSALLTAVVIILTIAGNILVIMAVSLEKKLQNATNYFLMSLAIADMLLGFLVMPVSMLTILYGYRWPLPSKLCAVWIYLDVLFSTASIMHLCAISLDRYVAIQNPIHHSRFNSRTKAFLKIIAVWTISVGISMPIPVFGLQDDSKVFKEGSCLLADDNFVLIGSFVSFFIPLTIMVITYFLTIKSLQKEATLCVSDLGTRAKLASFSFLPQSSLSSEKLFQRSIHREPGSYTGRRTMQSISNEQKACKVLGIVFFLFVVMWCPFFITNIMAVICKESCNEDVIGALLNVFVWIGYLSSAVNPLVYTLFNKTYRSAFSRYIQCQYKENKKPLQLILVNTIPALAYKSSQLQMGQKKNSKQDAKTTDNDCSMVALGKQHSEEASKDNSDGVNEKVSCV
Sequence of hSigma1 receptor (Q99720 whole entry): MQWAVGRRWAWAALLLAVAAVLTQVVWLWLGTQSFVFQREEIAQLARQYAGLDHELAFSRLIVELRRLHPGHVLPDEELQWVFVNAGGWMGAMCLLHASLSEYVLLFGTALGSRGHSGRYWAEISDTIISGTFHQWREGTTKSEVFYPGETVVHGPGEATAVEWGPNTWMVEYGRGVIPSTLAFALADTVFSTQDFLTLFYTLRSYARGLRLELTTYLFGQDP
Sequence of human DA D3 receptor (P35462 whole entry): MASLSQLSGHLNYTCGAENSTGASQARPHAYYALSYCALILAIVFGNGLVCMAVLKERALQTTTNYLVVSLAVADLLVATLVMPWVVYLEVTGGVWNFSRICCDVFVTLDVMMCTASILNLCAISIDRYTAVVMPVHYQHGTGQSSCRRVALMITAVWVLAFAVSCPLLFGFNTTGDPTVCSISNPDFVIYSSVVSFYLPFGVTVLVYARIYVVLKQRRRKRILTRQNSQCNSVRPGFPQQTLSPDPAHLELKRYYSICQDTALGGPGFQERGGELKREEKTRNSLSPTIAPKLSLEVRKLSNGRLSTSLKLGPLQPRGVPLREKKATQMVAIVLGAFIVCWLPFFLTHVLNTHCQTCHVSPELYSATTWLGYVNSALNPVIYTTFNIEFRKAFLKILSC
Sequence of human DA D1 receptor (P21728 whole entry): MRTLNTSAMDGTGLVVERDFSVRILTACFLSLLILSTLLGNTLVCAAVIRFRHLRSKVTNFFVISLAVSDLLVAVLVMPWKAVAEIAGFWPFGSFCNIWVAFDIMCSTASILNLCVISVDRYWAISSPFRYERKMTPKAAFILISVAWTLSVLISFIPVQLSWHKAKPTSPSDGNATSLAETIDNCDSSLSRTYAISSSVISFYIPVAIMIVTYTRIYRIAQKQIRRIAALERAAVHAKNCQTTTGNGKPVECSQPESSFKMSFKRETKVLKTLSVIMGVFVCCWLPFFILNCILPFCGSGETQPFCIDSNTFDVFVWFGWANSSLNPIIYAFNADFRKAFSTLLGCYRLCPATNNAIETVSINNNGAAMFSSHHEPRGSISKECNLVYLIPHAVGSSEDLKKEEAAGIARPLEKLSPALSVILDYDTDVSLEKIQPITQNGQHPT
Sequence of human DA D2 receptor (P14416 whole entry): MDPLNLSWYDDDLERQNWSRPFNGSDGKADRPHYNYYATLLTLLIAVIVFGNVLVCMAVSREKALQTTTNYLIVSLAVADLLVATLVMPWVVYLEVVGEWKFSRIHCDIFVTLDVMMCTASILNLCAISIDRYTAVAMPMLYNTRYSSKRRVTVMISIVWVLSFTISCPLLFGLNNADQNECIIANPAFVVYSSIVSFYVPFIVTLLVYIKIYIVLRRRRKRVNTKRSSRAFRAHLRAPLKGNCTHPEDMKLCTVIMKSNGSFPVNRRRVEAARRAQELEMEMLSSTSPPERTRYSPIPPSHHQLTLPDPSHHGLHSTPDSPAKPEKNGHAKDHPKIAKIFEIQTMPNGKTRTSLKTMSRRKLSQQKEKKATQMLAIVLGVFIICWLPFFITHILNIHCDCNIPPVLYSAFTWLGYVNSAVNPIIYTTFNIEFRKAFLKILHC

SMILES	Ki (hDAT [1])	Ki (hNET [2]; HEK-hNET membranes)	ratio of binding Ki to uptake IC50, hDAT (hDAT [3])	IC50 (hDAT [3])	IC50 (hSERT [4])	ratio of binding Ki to uptake IC50, hNET (hNET [5])	EC50 (hDAT [6])	EC50 (hSERT [7])	EC50 (hNET [8])	% maximum release ± sem, hNET [3H]NE (hNET [8])	IC50 (hVMAT2 [9])	EC50 (hVMAT2 [10])	Ki (h5-HT1A receptor [11])	Ki (h5-HT2A receptor [12])	h5-HT1A Stimulation of [35S]GTPγS binding % maximum stimulation ± sem (h5-HT1A receptor [14])	EC50 (h5-HT1A receptor [14])	h5-HT2A Inhibition of 5-HT-stimulated IP-1 formation % maximum inhibition ± sem (h5-HT2A receptor [15])	IC50 (h5-HT2A receptor [15])	h5-HT2C Inhibition of 5-HT-stimulated IP-1 formation % maximum inhibition ± sem (h5-HT2C receptor [16])	Ki (hSigma1 receptor)	further results
CNC(C)C(=O)c1ccc(F)cc1 (stereo not shown) [4-FMC, 4-fluoromethcathinone]	10.4 ± 3.3 µM	35 ± 10 µM	38	0.273 ± 0.074 µM	> 10 µM	276	17.8 ± 7.6 µM	39 ± 14 µM	1.53 ± 0.43 µM	194 ± 58%	178 ± 36 µM	> 100 µM	71.6 ± 3.4 µM	10 ± 1 µM	70.7 ± 8.3%	156 ± 3.4 µM	97.0 ± 1.6%	23.6 ± 3 µM	15 ± 20%	24.2 ± 9 µM	IC50 (hNET [5]; 20 nM [3H]NE, intact cells): 0.127 ± 0.02 µM; % maximum release ± sem, hDAT [3H]DA (hDAT [6]): 98 ± 14%; time of peak/maximal [3H]DA release after addition of drug (hDAT [6]; 4-FMC 10 µM to 300 µM, mephedrone 30 µM, methylone 100 µM): about 6 min; fold less potent than METH to induce [3H]DA release (hDAT [6]; EC50 compared to METH): 45 fold; % maximum release ± sem, hSERT [3H]5-HT (hSERT [7]): 39.3 ± 9.7%; time of peak [3H]5-HT release after addition of drug (hSERT [7]): about 6 min; time of peak [3H]NE release after addition of drug (hNET [8]): 8 to 16 min; Ki (h5-HT2C receptor [13]): 12.6 ± 2.4 µM; serum concentration in overdose [17]: 346 ng/mL; serum concentration in overdose (molar) [17]: ~ 1.6 uM
CNC(C)Cc1ccc2c(c1)OCO2 (stereo not shown) [MDMA, 3,4-methylenedioxymethylamphetamine, reference compound]	22 ± 5.1 µM	–	–	0.201 ± 0.047 µM	0.109 ± 0.017 µM	–	4.8 ± 2.3 µM	1.04 ± 0.27 µM	0.57 ± 0.19 µM	116 ± 11%	5.8 ± 1.4 µM	114 ± 40 µM	14.1 ± 2.4 µM	8.3 ± 1.2 µM	65.8 ± 8.5%	35 ± 14 µM	96.3 ± 3.8%	189 ± 52 µM	9 ± 12%	19.4 ± 6.3 µM	Ki (hNET [2]): 30.9 µM; IC50 (hNET [5]): 0.0242 µM; % maximum release ± sem, hDAT [3H]DA (hDAT [6]; relative to maximal AUC induced by METH (1 or 10 µM)): 104 ± 14%; % maximum release ± sem, hSERT [3H]5-HT (hSERT [7]): 74 ±12%; Ki (hVMAT2 [18]): 661 ± 58 µM; affinity for the [3H]SCH23390 binding site, DA D1 receptor (human DA D1 receptor): no measurable affinity; affinity for the [3H]YM-09151-2 binding site, DA D2 receptor (human DA D2 receptor): no measurable affinity; affinity for the [3H]YM-09151-2 binding site, DA D3 receptor (human DA D3 receptor): no measurable affinity; affinity for the [3H]YM-09151-2 binding site, DA D4.4 receptor (human D4.4 receptor): no measurable affinity; h5-HT2C agonist activity, inositol monophosphate (h5-HT2C receptor [19]): full agonist with low micromolar potency
CNC(C)C(=O)c1ccccc1 (stereo not shown) [Methcathinone, methcathinone, reference compound]	3.3 ± 1.1 µM	4.48 ± 0.49 µM	23	0.144 ± 0.032 µM	13.5 ± 2.9 µM	144	3.57 ± 0.68 µM	> 100 µM	0.228 ± 0.066 µM	149 ± 42%	117 ± 57 µM	11.6 ± 7.3 µM	29.1 ± 3.6 µM	29.2 ± 3.3 µM	52.8 ± 6.2%	49 ± 21 µM	99.63 ± 0.37%	40 ± 9.5 µM	17.5 ± 4.0%	117 ± 40 µM	ratio of binding Ki to uptake IC50, hSERT (hSERT [4]; [125I]RTI-55 Ki / [3H]5-HT uptake IC50): > 7.4; IC50 (hNET [5]; 20 nM [3H]NE, intact cells): 0.0311 ± 0.0051 µM; % maximum release ± sem, hDAT [3H]DA (hDAT [6]): 83.3 ± 4.9%; % maximum release ± sem, hSERT [3H]5-HT (hSERT [7]; relative to maximal AUC induced by PCA (10 µM)): 21.1 ± 9.8%; Release of [3H]NE % maximum release ± sem or range, hVMAT2 (hVMAT2 [10]): 42 ± 10%; Ki (h5-HT2C receptor [13]): 16 ± 4.2 µM; affinity for the [3H]SCH23390 binding site, DA D1 receptor (human DA D1 receptor): no measurable affinity; affinity for the [3H]YM-09151-2 binding site, DA D2 receptor (human DA D2 receptor): no measurable affinity; affinity for the [3H]YM-09151-2 binding site, DA D3 receptor (human DA D3 receptor): no measurable affinity; affinity for the [3H]YM-09151-2 binding site, DA D4.4 receptor (human D4.4 receptor): no measurable affinity; h5-HT2C agonist activity, inositol monophosphate (h5-HT2C receptor [19]; data not shown): partial agonists with midmicromolar potencies
